What all share (type): in vivo
The test system of assay [1] is common cutworm (Spodoptera Litura). The assay is described as follows: Insecticidal effect on common cutworm (Test Example 2). To be noted: 500 ppm, 25° C.; for Insecticidal effect on common cutworm (Test Example 2), judged grade / Insecticidal effect (Test Example 2), judged from mortality: cabbage leaf dip; for Insecticidal effect on common cutworm (Test Example 2), judged grade: second-instar larvae; for Insecticidal effect on common cutworm (Test Example 2), judged grade / Insecticidal effect, Test Example 2: eight days after inoculation; for Insecticidal effect, Test Example 2: cabbage leaf immersed; for Insecticidal effect (Test Example 2), judged from mortality: 8 days after inoculation. The procedure, abridged:
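Second-instar larvae placed in 9 cm Petri dishes with air-dried treated material, held at 25 °C. Dead and live insects counted 8 days after inoculation; mortality calculated and scored against a set criterion. Triplicate groups of 10 insects.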

The test system of assay [2] is rice leafroller (Cnaphalocrocis medinalis). In words: Insecticidal effect on rice leafroller (Test Example 3). To be noted: 500 ppm, 25° C., humidity 70%; for Insecticidal effect on rice leafroller (Test Example 3), judged grade / Insecticidal effect (Test Example 3), judged from mortality: rice lamina dip; for Insecticidal effect on rice leafroller (Test Example 3), judged grade: third-instar larvae; for Insecticidal effect on rice leafroller (Test Example 3), judged grade / Insecticidal effect, Test Example 3: four days after inoculation; for Insecticidal effect, Test Example 3: rice lamina immersed; for Insecticidal effect (Test Example 3), judged from mortality: 4 days after inoculation. In outline: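 Groups of 10 third-instar larvae, in triplicate, are placed on air-dried lamina resting on wet filter paper. Incubation runs four days at 25° C with 70% humidity before survivors and dead are tallied.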

Assay [3] deals with diamondback moth (Plutella xylostella). In words: Insecticidal effect on diamondback moth (Test Example 1). To be noted: for Insecticidal effect on diamondback moth (Test Example 1), judged grade: mortality judged according to the criterion shown in Test Example 1; for Insecticidal effect, Test Example 1 / Insecticidal effect (Test Example 1), judged from mortality: diamondback moth; for Insecticidal effect (Test Example 1), judged from mortality: judged by the criterion of Test Example 1. In outline: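 Eggs laid by adult moths on Chinese cabbage seedlings, which were immersed in test solution, air-dried and kept at 25 °C. Hatched insects counted 6 days after immersion and mortality calculated, with effect graded by criterion; triplicate groups of 10 insects.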

Where [4] appears, read: second-instar larvae of common cutworm.
The mark [5] stands for this setting: third-instar larvae of rice leafroller.
Where [6] appears, read: judged by the mortality criterion of Test Example 1.
The mark [7] stands for this setting: common cutworm second-instar larvae.
Where [8] appears, read: rice leafroller third-instar larvae.
Where [9] appears, read: mortality judged by criterion of Test Example 1.

In the case of `CC(C)NC(=O)c1c(C(=O)Nc2ccc(C(F)(C(F)(F)F)C(F)(F)F)cc2)cccc1[N+](=O)[O-]` [compound 610], the “Insecticidal effect on common cutworm (Test Example 2), judged grade” value (shortened to “Insecticidal effect on common cutworm”) in assay [1] is “A (100)”. Moreover, the “Insecticidal effect on rice leafroller (Test Example 3), judged grade” value (“Insecticidal effect on rice leafroller” for short) in assay [2] is “C (89-80)”. In addition, the “Insecticidal effect on diamondback moth (Test Example 1), judged grade” value (“Insecticidal effect on diamondback moth” for short) in assay [3] was “A (100)”.
On to `CC(C)NC(=O)c1c(Cl)cccc1C(=O)Nc1ccc(F)c(F)c1F` [compound 116], for which, in assay [1] (setting [4]), the “Insecticidal effect, Test Example 2” value was “D (79-50)”. Also, in assay [2] (setting [5]), the “Insecticidal effect, Test Example 3” value is reported as “A (100)”. Moreover, in assay [3] (setting [6]), the “Insecticidal effect, Test Example 1” value is “A (100)”.
With `Cc1cc(C(F)(F)C(F)(F)F)ccc1NC(=O)c1cccc(Cl)c1C(=O)NC(C)c1ccc(Cl)cc1` (stereo not drawn) [compound 1366], the “Insecticidal effect, Test Example 2” value in assay [1] (setting [7]) was “A (100)”. For the same molecule, the “Insecticidal effect, Test Example 3” value in assay [2] (setting [8]) is on record as “A (100)”. In addition, the “Insecticidal effect, Test Example 1” value in assay [3] (setting [9]) is given as “A (100)”.
For the molecule `CC(C)NC(=O)c1cccc(F)c1C(=O)Nc1ccc(OC(F)(F)C(F)OC(F)(F)C(F)(F)C(F)(F)F)cc1` (stereo not drawn) [compound 538], the “Insecticidal effect on common cutworm” value in assay [1] is given as “A (100)”. In assay [2], the “Insecticidal effect on rice leafroller” value is “A (100)”. In assay [3], the “Insecticidal effect on diamondback moth” value is given as “A (100)”.
Turning to `Cc1cc(SC(F)(F)C(F)(F)F)ccc1NC(=O)c1cccc(F)c1C(=O)NC(C)C` [compound 905], in assay [1], the “Insecticidal effect on common cutworm” value is listed as “A (100)”. Further, the “Insecticidal effect on rice leafroller” value in assay [2] is recorded as “A (100)”. Moreover, the “Insecticidal effect on diamondback moth” value in assay [3] is on record as “A (100)”.
For `CCc1cc(C(F)(F)C(F)(F)F)ccc1NC(=O)c1cccc(I)c1C(=O)NC(C)(C)C` [compound 1475], the “Insecticidal effect (Test Example 2), judged from mortality” value in assay [1] (setting [4]) was “A (100)”. Also, the “Insecticidal effect (Test Example 3), judged from mortality” value in assay [2] (setting [5]) is “A (100)”. In assay [3], the “Insecticidal effect (Test Example 1), judged from mortality” value was “A (100)”.
As to `CC(C)NC(=O)c1c(I)cccc1C(=O)Nc1ccc2oc(-c3ccc(C(F)(F)F)cc3)nc2c1` [compound 1173], the “Insecticidal effect, Test Example 2” value in assay [1] (setting [7]) is recorded as “A (100)”. For the same molecule, the “Insecticidal effect, Test Example 3” value in assay [2] (setting [8]) is on record as “A (100)”. Also, the “Insecticidal effect, Test Example 1” value in assay [3] (setting [9]) is reported as “A (100)”.
As for `Cc1cc(C#CC(C)(C)C)ccc1NC(=O)c1cccc(I)c1C(=O)NC(C)C` [compound 1305], the “Insecticidal effect, Test Example 2” value in assay [1] (setting [7]) was “A (100)”. Besides, the “Insecticidal effect, Test Example 3” value in assay [2] (setting [8]) is recorded as “A (100)”. Further, the “Insecticidal effect, Test Example 1” value in assay [3] (setting [9]) is given as “A (100)”.
For the molecule `CCN(CC)C(=O)c1c(I)cccc1C(=O)Nc1ccc(-c2ccc(Cl)cc2)cc1C` [compound 1615], the “Insecticidal effect (Test Example 2), judged from mortality” value in assay [1] (setting [4]) is given as “A (100)”. For the same molecule, the “Insecticidal effect (Test Example 3), judged from mortality” value in assay [2] (setting [5]) is recorded as “A (100)”. Besides, the “Insecticidal effect (Test Example 1), judged from mortality” value in assay [3] is recorded as “A (100)”.
Take `Cc1cc(C(F)(F)C(F)(F)F)ccc1NC(=O)c1cccc(Cl)c1C(=O)NC(C)(C)C#Cc1ccc(Cl)cc1Cl` [compound 1571]: in assay [1] (setting [4]), the “Insecticidal effect (Test Example 2), judged from mortality” value is listed as “A (100)”. Moreover, the “Insecticidal effect (Test Example 3), judged from mortality” value in assay [2] (setting [5]) is reported as “A (100)”. The “Insecticidal effect (Test Example 1), judged from mortality” value in assay [3] is given as “A (100)”.
Regarding `CC(C)NC(=O)c1ccccc1C(=O)Nc1ccc(C(O)(C(F)(F)F)C(F)(F)F)cc1` [compound 978], the “Insecticidal effect, Test Example 2” value in assay [1] (setting [7]) is given as “C (89-80)”. For the same molecule, the “Insecticidal effect, Test Example 3” value in assay [2] (setting [8]) is listed as “A (100)”. In addition, in assay [3] (setting [9]), the “Insecticidal effect, Test Example 1” value is “A (100)”.
As to `Cc1cc(OC(F)(F)C(F)(F)Br)ccc1NC(=O)c1cccc(Cl)c1C(=O)NC(C)C` [compound 144], the “Insecticidal effect, Test Example 2” value in assay [1] (setting [4]) is recorded as “A (100)”. In addition, the “Insecticidal effect, Test Example 3” value in assay [2] (setting [5]) is “A (100)”. Besides, the “Insecticidal effect, Test Example 1” value in assay [3] (setting [6]) is “A (100)”.
For the molecule `CCc1cc(C(F)(F)C(F)(F)F)ccc1NC(=O)c1cccc(Cl)c1C(=O)N(CC)CC` [compound 1543], the “Insecticidal effect (Test Example 2), judged from mortality” value in assay [1] (setting [4]) is listed as “A (100)”. In addition, the “Insecticidal effect (Test Example 3), judged from mortality” value in assay [2] (setting [5]) is reported as “A (100)”. In addition, the “Insecticidal effect (Test Example 1), judged from mortality” value in assay [3] was “A (100)”.
Take `CC(C)NC(=O)c1c(Cl)cccc1C(=O)Nc1cccc(Cl)c1Cl` [compound 111]: the “Insecticidal effect, Test Example 2” value in assay [1] (setting [4]) is “C (89-80)”. In addition, the “Insecticidal effect, Test Example 3” value in assay [2] (setting [5]) is reported as “B (99-90)”. Besides, the “Insecticidal effect, Test Example 1” value in assay [3] (setting [6]) is on record as “A (100)”.
Consider `CC(C)(C)NC(=O)c1c(I)cccc1C(=O)Nc1ccc(C(F)(F)C(F)(F)F)cc1F` [compound 1427], for which the “Insecticidal effect, Test Example 2” value in assay [1] (setting [7]) is on record as “A (100)”. The “Insecticidal effect, Test Example 3” value in assay [2] (setting [8]) is given as “A (100)”. Moreover, the “Insecticidal effect, Test Example 1” value in assay [3] (setting [9]) is on record as “A (100)”.
Take `Cc1cc(OC(F)(F)F)ccc1NC(=O)c1cccc(I)c1C(=O)NC(C)(C)C` [compound 957]: the “Insecticidal effect, Test Example 2” value in assay [1] (setting [7]) was “A (100)”. In addition, the “Insecticidal effect, Test Example 3” value in assay [2] (setting [8]) is “A (100)”. Besides, in assay [3] (setting [9]), the “Insecticidal effect, Test Example 1” value is listed as “A (100)”.
Regarding `CC(C)(C)NC(=O)c1c(Cl)cccc1C(=O)Nc1ccc(C(F)(F)F)cc1` [compound 934], the “Insecticidal effect on common cutworm” value in assay [1] is “A (100)”. Also, the “Insecticidal effect on rice leafroller” value in assay [2] is listed as “A (100)”. Besides, the “Insecticidal effect on diamondback moth” value in assay [3] was “A (100)”.
Regarding `CC(C)NC(=O)c1cccc(Cl)c1C(=O)Nc1ccc(Cl)cc1F` [compound 212], the “Insecticidal effect, Test Example 2” value in assay [1] (setting [4]) is reported as “D (79-50)”. In assay [2] (setting [5]), the “Insecticidal effect, Test Example 3” value is given as “A (100)”. For the same molecule, the “Insecticidal effect, Test Example 1” value in assay [3] (setting [6]) is “A (100)”.
As to `Cc1cc(C(F)(F)C(F)(F)F)ccc1NC(=O)c1cccc(Cl)c1C(=O)NCc1ccccn1` [compound 1355], the “Insecticidal effect, Test Example 2” value in assay [1] (setting [7]) is “A (100)”. For the same molecule, the “Insecticidal effect, Test Example 3” value in assay [2] (setting [8]) is given as “A (100)”. Moreover, in assay [3] (setting [9]), the “Insecticidal effect, Test Example 1” value is “A (100)”.
Consider `Cc1cc(C(F)(F)C(F)(F)F)ccc1NC(=O)c1cccc(I)c1C(=O)N[C@H](C)CO` [compound 1481], for which, in assay [1] (setting [4]), the “Insecticidal effect (Test Example 2), judged from mortality” value is “A (100)”. In addition, the “Insecticidal effect (Test Example 3), judged from mortality” value in assay [2] (setting [5]) was “A (100)”. Further, the “Insecticidal effect (Test Example 1), judged from mortality” value in assay [3] was “A (100)”.
As for `CCN(CC)C(=O)c1c(I)cccc1C(=O)Nc1ccc(C(F)(F)C(F)(F)F)cc1C` [compound 1561], the “Insecticidal effect (Test Example 2), judged from mortality” value in assay [1] (setting [4]) is “A (100)”. In assay [2] (setting [5]), the “Insecticidal effect (Test Example 3), judged from mortality” value was “A (100)”. Moreover, in assay [3], the “Insecticidal effect (Test Example 1), judged from mortality” value is listed as “A (100)”.
`CCc1cc(C(F)(F)C(F)(F)F)ccc1NC(=O)c1cccc(I)c1C(=O)N(CC)CC` [compound 1559]: the “Insecticidal effect (Test Example 2), judged from mortality” value in assay [1] (setting [4]) is “A (100)”. Moreover, in assay [2] (setting [5]), the “Insecticidal effect (Test Example 3), judged from mortality” value was “A (100)”. Also, in assay [3], the “Insecticidal effect (Test Example 1), judged from mortality” value is “A (100)”.
As for `Cc1cc(Oc2ncc(C(F)(F)F)cc2Cl)ccc1NC(=O)c1cccc(Br)c1C(=O)NC(C)C` [compound 298], the “Insecticidal effect, Test Example 2” value in assay [1] (setting [4]) was “A (100)”. In addition, the “Insecticidal effect, Test Example 3” value in assay [2] (setting [5]) was “A (100)”. Moreover, the “Insecticidal effect, Test Example 1” value in assay [3] (setting [6]) is “A (100)”.
On to `Cc1cc(C(F)(F)C(F)(F)C(F)(F)C(F)(F)F)ccc1NC(=O)c1c(Cl)cccc1C(=O)NC(C)C` [compound 225], for which, in assay [1] (setting [4]), the “Insecticidal effect, Test Example 2” value is “B (99-90)”. Also, in assay [2] (setting [5]), the “Insecticidal effect, Test Example 3” value is listed as “A (100)”. The “Insecticidal effect, Test Example 1” value in assay [3] (setting [6]) is given as “A (100)”.
For `CC(C)NC(=O)c1c(I)cccc1C(=O)Nc1ccc2c(c1Cl)OC(F)(F)C(F)O2` (racemic) [compound 1679], in assay [1] (setting [4]), the “Insecticidal effect (Test Example 2), judged from mortality” value is recorded as “A (100)”. Also, in assay [2] (setting [5]), the “Insecticidal effect (Test Example 3), judged from mortality” value is “A (100)”. In assay [3], the “Insecticidal effect (Test Example 1), judged from mortality” value is on record as “A (100)”.

The record behind these values is US6362369B1, “Phthalic acid diamide derivatives fluorine-containing aniline compounds as starting material, agricultural and horticultural insecticides, and a method for application of the insecticides” (Nihon Nohyaku Co., Ltd., priority 1997, dated 2002).
